Holding throughout (test): URAT1 uric acid transport activity assay
Common to all, as to format: cell-based

Assay [1] has as its target T1, r-N35S/Y365F rURAT1 double point mutant (Rattus norvegicus, UniProt Q3ZAV1, N35S/Y365F).
T1 construct: expressed in transfected cells; host or cells: HEK-293T
T1 sequence (Q3ZAV1 1-553 N35S/Y365F): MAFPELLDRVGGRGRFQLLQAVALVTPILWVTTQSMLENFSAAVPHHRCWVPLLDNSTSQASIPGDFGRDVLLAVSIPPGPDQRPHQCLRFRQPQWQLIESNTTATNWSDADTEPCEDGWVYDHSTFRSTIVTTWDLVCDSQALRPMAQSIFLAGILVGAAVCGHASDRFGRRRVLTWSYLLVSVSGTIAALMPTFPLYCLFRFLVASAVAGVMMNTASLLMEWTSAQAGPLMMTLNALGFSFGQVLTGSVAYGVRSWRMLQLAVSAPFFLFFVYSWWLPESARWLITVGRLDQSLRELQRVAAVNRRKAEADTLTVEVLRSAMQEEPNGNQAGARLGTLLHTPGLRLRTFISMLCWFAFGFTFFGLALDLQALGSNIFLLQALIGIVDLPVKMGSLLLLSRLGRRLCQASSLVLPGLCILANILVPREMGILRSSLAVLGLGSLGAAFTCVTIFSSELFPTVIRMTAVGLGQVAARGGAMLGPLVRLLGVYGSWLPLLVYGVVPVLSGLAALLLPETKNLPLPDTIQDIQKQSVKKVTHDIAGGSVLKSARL
The source says: (§1) hURAT1 (GenBank BC053348.1) and rURAT1 (NCBI NM_001034943.1) genes were purchased from Origene Technologies, Inc. and subcloned into pCMV6/neo using NotI, creating pCMV6/neo-hURAT1 and pCMV6/neo-rURAT1. Mutants were produced by polymerase chain reaction (PCR) or site-directed mutagenesis using the QuikChange Lightning Multi Site-Directed Mutagenesis Kit (Agilent Technologies). […] Detailed methods are provided in Supplementary Methods, and primers are listed in Supplementary Table 1. […] Residues in rURAT1 and hOAT1 that correspond to the residues in hURAT1 were identified from aligned protein sequences (Supplementary Fig. 1)[50].
(§2) DNA (10 μg) was mixed with 30 μl of DreamFect Gold (Boca Scientific) in 2 ml OptiMem (Life Technologies). After 20 minutes, 18 ml of media containing 2 × 10^7 cells in suspension was added and mixed, and 200 μl per well were plated onto white clear-bottomed poly-D-lysine coated 96-well plates (BD Biosciences). The cells were assayed the following day.
(§3) Compounds were serially diluted into assay buffer and added to the cells for 5 minutes prior to addition of radiolabelled uric acid substrate. URAT1-expressing cells were incubated with 100 μM ^14C-uric acid for 10 minutes. […] Each treatment was measured in triplicate.
(§4) Unlabelled uric acid was prepared at a 20 mM stock just prior to use in a solution containing 20 mM dibasic potassium phosphate and 20 mM potassium hydroxide.
(§5) Nonlinear regression analyses using GraphPad Prism software were used to calculate the potency of URAT1 inhibitors (IC50 values) from log (inhibitor) versus response - variable slope (four parameters) equations. Statistical significance was assessed using Student’s unpaired t-tests.

The target in assay [2] is T2, r-F351C rURAT1 point mutant (Rattus norvegicus, UniProt Q3ZAV1, F351C).
T2 sequence (Q3ZAV1 1-553 F351C): T1 sequence (Q3ZAV1 1-553 N35S/Y365F) with S35N, F351C, F365Y
Excerpt: as §1, §2, §3, §4, §5

Assay [3] has as its target T3, r-L18V rURAT1 point mutant (Rattus norvegicus, UniProt Q3ZAV1, L18V).
T3 sequence (Q3ZAV1 1-553 L18V): T1 sequence (Q3ZAV1 1-553 N35S/Y365F) with L18V, S35N, F365Y
Excerpt: as §1, §2, §3, §4, §5

Where [4] appears, read: r-N35S/Y365F, MES pH 5.5, 100 μM 14C-uric acid, read-out: IC50 (uric acid transport).

Numbering of substitutions follows the chain as printed. Where two headings read alike, the source gives them in different places.

Experimental findings from article PMC5054527, “Mechanism of high affinity inhibition of the human urate transporter URAT1” (Scientific Reports, 2016) are described below.

On to `CCc1oc2ccccc2c1C(=O)c1cc(Br)c(O)c(Br)c1` [benzbromarone], for which the IC50 (commonly the midpoint of a concentration-inhibition curve) came out at 2.2 ± 0.29 µM in assay [1], 24 ± 3.3 µM in assay [2] and 24 ± 3.1 µM in assay [3].

For `O=C(O)CSc1nnc(Br)n1-c1ccc(C2CC2)c2ccccc12` [lesinurad, 2-((5-bromo-4-(4-cyclopropylnaphthalen-1-yl)-4H-1,2,4-triazol-3-yl)thio)acetic acid], the IC50 worked out at 1.6 ± 0.03 µM in assay [1] (setting [4]); 82 ± 1.7 µM in assay [2] (r-F351C, MES pH 5.5, 100 μM 14C-uric acid, read-out: IC50 (uric acid transport)); 78 ± 6.6 µM in assay [3] (r-L18V, MES pH 5.5, 100 μM 14C-uric acid, read-out: IC50 (uric acid transport)).

As for `O=C1C(CC[S+]([O-])c2ccccc2)C(=O)N(c2ccccc2)N1c1ccccc1` (centres unmarked) [sulfinpyrazone], the IC50 worked out at 142 ± 15 µM in assay [1] (r-N35S/Y365F, HEPES pH 7.3, 100 μM 14C-uric acid, read-out: IC50 (uric acid transport)); 924 ± 276 µM in assay [2] (r-F351C, HEPES pH 7.3, 100 μM 14C-uric acid, read-out: IC50 (uric acid transport)); 971 ± 89 µM in assay [3] (r-L18V, HEPES pH 7.3, 100 μM 14C-uric acid, read-out: IC50 (uric acid transport)).

Consider `O=c1[nH]c(=O)c2[nH]c(=O)[nH]c2[nH]1` [uric acid], for which, in assay [1] (from IC50 values), the “fold increased affinity of r-N35S/Y365F compared to rURAT1” value is recorded as 5.4 fold. Besides, the IC50 in assay [1] (setting [4]) was found to be 484 µM.
